# Laboratory results taken from US10800741B2 (ANCUREALL PHARMACEUTICAL (SHANGHAI) CO., LTD., priority 2017, dated 2020).
# Like-named read-outs stand apart in the source and are kept apart here.
# Key:
# protein kinases [1] = biological target: T1, protein kinases (Homo sapiens, UniProt P00519, T315I); assay: KINOMEscan in vitro binding to 468 labeled protein kinases; details: read-out: Test compound/solvent control (%); for remaining binding at 0.001 µM: 1 nM; for remaining binding at 0.01 µM: 10 nM; for remaining binding at 1 µM: 1000 nM
# T1 construct: purchased Discovery X company (USA), KINOMEscan screening platform
# Protocol: (§1) Test Example 6 Determination of Binding Affinity of the Present Compounds on Protein Kinases In Vitro
# (§2) KINOMEscan screening platform of Discovery X company (USA) was used to identify the binding targets of the present compounds to protein kinases. Compound 66 of the present invention was dissolved in DMSO (Sigma Aldrich) at concentrations of 1000 nM, 10 nM and 1 nM, and then was subjected to in vitro binding reaction with 468 labeled protein kinases. Two samples were taken in parallel for each assay sample.
# (§3) The lower the percentage of the test compound to the solvent control, the stronger the binding affinity of the test compound to the protein kinase in vitro.
# protein kinases [2] = biological target: T2, protein kinases (Homo sapiens, UniProt P08922); assay: as above; details: ROS1, read-out: Test compound/solvent control (%)
# T2 construct: purchased Discovery X company (USA), KINOMEscan screening platform
# T2 sequence (P08922 28-2347): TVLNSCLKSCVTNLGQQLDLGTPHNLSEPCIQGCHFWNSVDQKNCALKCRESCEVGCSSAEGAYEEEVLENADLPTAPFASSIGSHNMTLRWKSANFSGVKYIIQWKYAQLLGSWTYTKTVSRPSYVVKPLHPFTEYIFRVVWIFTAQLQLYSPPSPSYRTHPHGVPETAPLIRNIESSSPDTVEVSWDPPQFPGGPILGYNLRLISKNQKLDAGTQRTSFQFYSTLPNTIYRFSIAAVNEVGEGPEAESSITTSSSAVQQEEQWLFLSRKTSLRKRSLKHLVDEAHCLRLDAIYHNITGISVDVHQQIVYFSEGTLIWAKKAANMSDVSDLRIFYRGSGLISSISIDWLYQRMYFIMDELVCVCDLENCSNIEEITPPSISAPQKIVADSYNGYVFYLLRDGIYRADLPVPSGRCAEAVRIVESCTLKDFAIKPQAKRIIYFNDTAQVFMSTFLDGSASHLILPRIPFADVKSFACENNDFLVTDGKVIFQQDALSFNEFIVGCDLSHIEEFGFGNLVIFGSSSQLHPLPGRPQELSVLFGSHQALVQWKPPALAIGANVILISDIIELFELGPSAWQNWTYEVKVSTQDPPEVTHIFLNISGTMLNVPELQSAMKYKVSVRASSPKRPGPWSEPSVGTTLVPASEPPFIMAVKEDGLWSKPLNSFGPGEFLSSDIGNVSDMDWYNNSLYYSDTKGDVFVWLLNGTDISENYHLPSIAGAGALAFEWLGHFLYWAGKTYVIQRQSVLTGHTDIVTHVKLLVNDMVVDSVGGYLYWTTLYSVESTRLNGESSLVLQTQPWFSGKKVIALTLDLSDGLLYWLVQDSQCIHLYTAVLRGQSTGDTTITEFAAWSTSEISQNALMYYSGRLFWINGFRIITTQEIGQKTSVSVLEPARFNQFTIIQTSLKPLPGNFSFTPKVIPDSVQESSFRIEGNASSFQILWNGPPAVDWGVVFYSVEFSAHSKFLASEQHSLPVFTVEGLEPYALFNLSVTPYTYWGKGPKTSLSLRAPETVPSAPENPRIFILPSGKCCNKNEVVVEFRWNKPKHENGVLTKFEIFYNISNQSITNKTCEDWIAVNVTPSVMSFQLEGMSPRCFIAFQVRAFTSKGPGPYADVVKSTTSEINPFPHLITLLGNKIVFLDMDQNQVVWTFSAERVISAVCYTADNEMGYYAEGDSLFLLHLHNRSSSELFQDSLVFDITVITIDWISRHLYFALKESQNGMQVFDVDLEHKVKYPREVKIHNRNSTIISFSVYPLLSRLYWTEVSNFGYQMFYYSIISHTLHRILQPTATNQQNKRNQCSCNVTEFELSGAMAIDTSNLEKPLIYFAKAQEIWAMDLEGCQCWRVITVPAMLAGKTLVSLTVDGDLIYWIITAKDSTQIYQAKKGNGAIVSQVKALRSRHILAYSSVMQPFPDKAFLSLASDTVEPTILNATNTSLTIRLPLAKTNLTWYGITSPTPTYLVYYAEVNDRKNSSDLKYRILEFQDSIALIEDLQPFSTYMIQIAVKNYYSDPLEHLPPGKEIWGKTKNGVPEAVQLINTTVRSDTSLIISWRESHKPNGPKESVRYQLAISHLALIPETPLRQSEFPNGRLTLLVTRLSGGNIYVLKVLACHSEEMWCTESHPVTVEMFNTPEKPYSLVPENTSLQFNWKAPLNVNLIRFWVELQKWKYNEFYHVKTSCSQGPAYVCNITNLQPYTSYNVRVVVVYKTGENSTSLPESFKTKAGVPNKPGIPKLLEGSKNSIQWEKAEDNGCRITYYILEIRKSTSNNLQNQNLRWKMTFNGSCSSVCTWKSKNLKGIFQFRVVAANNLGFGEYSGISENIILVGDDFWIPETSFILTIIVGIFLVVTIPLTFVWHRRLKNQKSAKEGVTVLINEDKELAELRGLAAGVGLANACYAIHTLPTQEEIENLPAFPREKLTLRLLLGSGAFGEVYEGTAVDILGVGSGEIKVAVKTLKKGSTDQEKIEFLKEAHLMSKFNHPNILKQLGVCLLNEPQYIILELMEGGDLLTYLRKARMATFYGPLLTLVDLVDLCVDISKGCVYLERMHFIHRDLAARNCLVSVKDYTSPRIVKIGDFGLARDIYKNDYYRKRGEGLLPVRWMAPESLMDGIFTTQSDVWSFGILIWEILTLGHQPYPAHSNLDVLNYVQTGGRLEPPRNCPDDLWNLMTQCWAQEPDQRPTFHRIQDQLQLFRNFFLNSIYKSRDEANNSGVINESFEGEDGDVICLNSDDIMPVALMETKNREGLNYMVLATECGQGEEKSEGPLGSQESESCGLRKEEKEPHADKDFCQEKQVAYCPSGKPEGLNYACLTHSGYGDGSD
# Protocol: as §1, §2, §3
# AN3-CA = AN3-CA subcutaneous transplantation tumor model, tumor growth inhibition in vivo; parameters: species or system Bab/c immunodeficient mice; details: 5 mg/kg i.p once a day, 17th day after the administration
# Excerpt: (§4) Test Example 7 Inhibition of Tumour Cell Growth In Vivo
# (§5) In order to establish subcutaneous transplantation tumor models of human non-small cell lung cancer and endometrial adenocarcinoma, Bab/c immunodeficient mice were subcutaneously inoculated with NCI-H1581 (ATCC) and AN3-CA (ATCC) cells, respectively.
# Experimental animals: 6-week female Bab/c immunodeficient mice (about 20 g in weight). The mice were purchased from Shanghai Sippr-BK Experimental Animal Co., Ltd., raised in Animal Center of Shanghai University of Traditional Chinese Medicine, approved by Ethical Committee of Shanghai University of Traditional Chinese Medicine. The breeding environment was SPF grade. […]
# When the tumor volume reached 100˜200 mm^3, the mice were randomly divided according to tumor size. […] The tumor was measured three times a week, and the tumor volume was calculated as: long diameter×short diameter^2/2. […] Efficacy was assessed based on relative tumor growth inhibition value (TGI), and safety was assessed based on animal weight change. […]
# (§6) Tumor volume data of 17 days after the start of administration were selected for statistical analysis among different groups, and independent sample T test was used to compare whether there were significant differences in relative tumor volume between the administration group and the control group. All data were analyzed using SPSS 18.0. […]
# NCI-H1581 = NCI-H1581 subcutaneous transplantation tumor model, tumor growth inhibition in vivo; parameters: species or system Bab/c immunodeficient mice; details: 17th day after the administration
# Excerpt: as §4, §5
# Experimental animals: 6-week female Bab/c immunodeficient mice (about 20 g in weight). The mice were purchased from Shanghai Sippr-BK Experimental Animal Co., Ltd., raised in Animal Center of Shanghai University of Traditional Chinese Medicine, approved by Ethical Committee of Shanghai University of Traditional Chinese Medicine. The breeding environment was SPF grade.
# Test samples: the present compounds 66 (purity: 99%), solid powder, stored at 4˜8° C.
# Cells and animal models: NCI-H1581 cells were cultured in RPMI 1640 medium containing 10% fetal bovine serum. Log-phase NCI-H1581 cells were collected and re-suspended with PBS to 2.5×10^7 cells per ml for subcutaneous single-point inoculation of Bab/c immunodeficient mice at the right side of the back of mouse (5×10^6 cells, 0.2 ml).
# When the tumor volume reached 100˜200 mm^3, the mice were randomly divided according to tumor size. The experiment was divided into solvent control group and drug administration group (compound 66 group). 6 mice in each group were administered 0.1 ml per 10 g body weight by intraperitoneal injection (i.p) once a day. The tumor was measured three times a week, and the tumor volume was calculated as: long diameter×short diameter^2/2. When the average tumor volume of the control group reached 2000 mm^3, the experiment was over and then the tumor was weighed and subjected to molecular pathology assay. Efficacy was assessed based on relative tumor growth inhibition value (TGI), and safety was assessed based on animal weight change.
# Preparation of test samples: appropriate amount of compound 66 was weighed and mixed with ultrapure water; and methanesulfonic acid was added for clarification; and then 4M NaOH was added to adjust the PH to 3.8; and a final volume was made up with ultrapure water. The final concentrations were 0.5 mg/ml and 0.25 mg/ml, respectively.
# T/C % refers to the relative tumor growth rate, that is, the percentage of relative tumor volume or tumor weight of the administration group and the control group at a certain time point. […]
# as §6
# [3] = test system: human intestinal cancer cell line HCT116 (KRAS G13D mutation); assay: Growth inhibition in combination with MEK1/2 inhibitor Trametinib, HCT116 (KRAS G13D mutation); assay type: cell-based; details: 5 days
# Protocol: Test Example 5 Synergistic Inhibition Effect of the Present Compounds in Combination with MEK1/2 Inhibitor on the Growth of RAS Mutant Tumor Cells In Vitro
# The cell culture, drug treatment and MTT assay of human intestinal cancer cell line HCT116 (KRAS G13D mutation) and human non-small cell lung cancer cell line NCI-H1299 (NRAS Q61K mutation) were performed according to the method of test example 1. Cells were treated with the MEK1/2 inhibitor Trametinib at 25 nM, 2.5 nM and 0.25 nM alone or in combination with compound 66 or 125 of the present invention (5 days).
compound,measurement,setting,value
"COCCOc1cc2nccc(Oc3ccc(NC(=O)Nc4cc(C(C)(C)C)n[nH]4)c(Cl)c3)c2cc1NC(C)=O [Compound 66, N-[4-{4-[3-(5-tert-butyl-2H-pyrazol-3-yl)-ureido]-3-chloro-phenoxy}-7-(2-methoxy-ethoxy)-quinolin-6-yl]-acetamide]",remaining binding at 0.001 µM,protein kinases [1]; ABL1(T315I)-phosphorylated,100%
same,remaining binding at 0.01 µM,protein kinases [1]; ABL1(T315I)-phosphorylated,34%
same,remaining binding at 1 µM,protein kinases [1]; ABL1(T315I)-phosphorylated,0.45%
same,remaining binding at 0.001 µM,protein kinases [1]; ABL1(T315I)-unphosphorylated,96%
same,remaining binding at 0.01 µM,protein kinases [1]; ABL1(T315I)-unphosphorylated,32%
same,remaining binding at 1 µM,protein kinases [1]; ABL1(T315I)-unphosphorylated,0.15%
same,remaining binding at 0.001 µM,protein kinases [2]; 1 nM,85%
same,remaining binding at 0.01 µM,protein kinases [2]; 10 nM,17%
same,remaining binding at 1 µM,protein kinases [2]; 1000 nM,4.6%
same,T/C (%),AN3-CA,1.37%
same,TGI (%),AN3-CA,98.63%
same,T/C (%),NCI-H1581; 2.5 mg/kg i.p once a day,7.91%
same,TGI (%),NCI-H1581; 2.5 mg/kg i.p once a day,92.09%
same,T/C (%),NCI-H1581; 5 mg/kg i.p once a day,1.07%
same,TGI (%),NCI-H1581; 5 mg/kg i.p once a day,98.93%
same,inhibition at 0.0078 µM,"[3]; Homo sapiens, HCT-116, 120 h, compound 7.8 nM alone (solvent instead of Trametinib), read-out: cell growth inhibition (percentage)",7.67%
same,inhibition at 0.0156 µM,"[3]; Homo sapiens, HCT-116, 120 h, compound 15.6 nM alone (solvent instead of Trametinib), read-out: cell growth inhibition (percentage)",22%
same,cell growth inhibition (percentage),[3]; compound 7.8 nM + Trametinib 0.25 nM,62.24%
same,cell growth inhibition (percentage),[3]; compound 7.8 nM + Trametinib 2.5 nM,73.79%
same,cell growth inhibition (percentage),[3]; compound 7.8 nM + Trametinib 25 nM,80.52%
same,cell growth inhibition (percentage),[3]; compound 15.6 nM + Trametinib 0.25 nM,66.72%
same,cell growth inhibition (percentage),[3]; compound 15.6 nM + Trametinib 2.5 nM,77.07%
same,cell growth inhibition (percentage),[3]; compound 15.6 nM + Trametinib 25 nM,81.03%
